Measurements: US20180244699A1, “1-HYDROXY-3H-2,1-BENZOXABOROLE DERIVATIVES AND THEIR USE AS MICROBIOCIDES” (Syngenta Participations AG, priority 2015, published 2018)

Assays:
[1] = tested on: Monographella nivalis (Microdochium nivale); assay: Monographella nivalis (Microdochium nivale) / liquid culture (foot rot cereals); assay type: cell-based; settings: growth inhibition photometrically 4-5 days after application, compared to untreated control
Procedure, shortened: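 Conidia from cryogenic storage were mixed into potato dextrose broth and added to wells holding test compound in DMSO. Incubation was at 24° C, with growth inhibition measured photometrically 4-5 days after application.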

[2] = tested on: Mycosphaerella arachidis (Cercospora arachidicola); assay: Mycosphaerella arachidis (Cercospora arachidicola) / liquid culture (early leaf spot); assay type: cell-based; settings: growth inhibition photometrically 4-5 days after application, compared to untreated control
Procedure: 9. Mycosphaerella arachidis (Cercospora arachidicola)/Liquid Culture (Early Leaf Spot) Conidia of the fungus from cryogenic storage are directly mixed into nutrient broth (PDB potato dextrose broth). After placing a (DMSO) solution of test compound into a microtiter plate (96-well format), the nutrient broth containing the fungal spores is added. The test plates are incubated at 24° C. and the inhibition of growth is determined photometrically 4-5 days after application.

[3] = tested on: Mycosphaerella graminicola (Septoria tritici); assay: Mycosphaerella graminicola (Septoria tritici) / liquid culture (Septoria blotch); assay type: cell-based; settings: Zymoseptoria tritici, growth inhibition photometrically 4-5 days after application, compared to untreated control
Procedure: 18. Mycosphaerella graminicola (Septoria tritici)/Liquid Culture (Septoria Blotch) Conidia of the fungus from cryogenic storage are directly mixed into nutrient broth (PDB potato dextrose broth). After placing a (DMSO) solution of test compound into a microtiter plate (96-well format), the nutrient broth containing the fungal spores is added. The test plates are incubated at 24° C. and the inhibition of growth is determined photometrically 4-5 days after application.

Sclerotinia sclerotiorum = Sclerotinia sclerotiorum / liquid culture (cottony rot); assay type: cell-based; settings: growth inhibition photometrically 3-4 days after application, compared to untreated control
Procedure: 17. Sclerotinia sclerotiorum/Liquid Culture (Cottony Rot) Mycelia fragments of a newly grown liquid culture of the fungus are directly mixed into nutrient broth (PDB potato dextrose broth). After placing a (DMSO) solution of test compound into a microtiter plate (96-well format) the nutrient broth containing the fungal material is added. The test plates are incubated at 24° C. and the inhibition of growth is determined photometrically 3-4 days after application.

Gaeumannomyces graminis = Gaeumannomyces graminis / liquid culture (take-all of cereals); assay type: cell-based; settings: growth inhibition photometrically 4-5 days after application, compared to untreated control
Procedure: 6. Gaeumannomyces Graminis/Liquid Culture (Take-all of Cereals) Mycelial fragments of the fungus from cryogenic storage were directly mixed into nutrient broth (PDB potato dextrose broth). After placing a (DMSO) solution of test compound into a microtiter plate (96-well format), the nutrient broth containing the fungal spores is added. The test plates are incubated at 24° C. and the inhibition of growth is determined photometrically 4-5 days after application.

Pythium ultimum = Pythium ultimum / liquid culture (seedling damping off); assay type: cell-based; settings: Globisporangium ultimum, growth inhibition photometrically 2-3 days after application, compared to untreated control
Procedure, shortened: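 Fungal mycelia fragments and oospores from fresh liquid culture mixed into potato dextrose broth and added to DMSO solutions of test compound. Incubated at 24° C.; growth inhibition read photometrically 2-3 days after application.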

[4] = tested on: Glomerella lagenarium (Colletotrichum lagenarium); assay: Glomerella lagenarium (Colletotrichum lagenarium) / liquid culture (anthracnose); assay type: cell-based; settings: Colletotrichum orbiculare, growth inhibition photometrically 3-4 days after application, compared to untreated control
Procedure: 3. Glomerella lagenarium (Colletotrichum lagenarium)/Liquid Culture (Anthracnose) Conidia of the fungus from cryogenic storage are directly mixed into nutrient broth (PDB potato dextrose broth). After placing a (DMSO) solution of test compound into a microtiter plate (96-well format), the nutrient broth containing the fungal spores is added. The test plates are incubated at 24° C. and the inhibition of growth is measured photometrically 3-4 days after application.

[5] = tested on: Thanatephorus cucumeris (Rhizoctonia solani); assay: Thanatephorus cucumeris (Rhizoctonia solani) / liquid culture (foot rot, damping-off); assay type: cell-based; settings: growth inhibition photometrically 3-4 days after application, compared to untreated control
Procedure: 16. Thanatephorus cucumeris (Rhizoctonia solani)/Liquid Culture (Foot Rot, Damping-Off) Mycelia fragments of a newly grown liquid culture of the fungus are directly mixed into nutrient broth (PDB potato dextrose broth). After placing a (DMSO) solution of the test compounds into a microtiter plate (96-well format), the nutrient broth containing the fungal material is added. The test plates are incubated at 24° C. and the inhibition of growth is determined photometrically 3-4 days after application.

[6] = tested on: Puccinia recondite f. sp. tritici; assay: Puccinia recondite f. sp. tritici / wheat / leaf disc preventative (brown rust); assay type: in vivo; settings: foliar, wheat leaf segments, inoculated 1 day after application, compared to untreated control
Procedure: 13. Puccinia recondite f. Sp. Tritici/Wheat/Leaf Disc Preventative (Brown Rust) Wheat leaf segments cv. Kanzler are placed on agar in multiwell plates (24-well format) and sprayed with the formulated test compound diluted in water. The leaf disks are inoculated with a spore suspension of the fungus 1 day after application. The inoculated leaf segments are incubated at 19° C. and 75% rh under a light regime of 12 h light/12 h darkness in a climate cabinet and the activity of a compound is assessed as percent disease control compared to untreated when an appropriate level of disease damage appears in untreated check leaf segments (7-9 days after application).

CCOc1c(C(=O)OC)ccc2c1B(O)OC2 [Compound 4, methyl 7-ethoxy-1-hydroxy-3H-2,1-benzoxaborole-6-carboxylate]
≥ 80%: inhibition of growth at 20 ppm [1] | inhibition of growth at 20 ppm [2] | inhibition of growth at 20 ppm [3] | inhibition of growth at 20 ppm (Sclerotinia sclerotiorum) | inhibition of growth at 20 ppm (Gaeumannomyces graminis) | inhibition of growth at 20 ppm (Pythium ultimum) | inhibition of growth at 20 ppm [4] | inhibition of growth at 20 ppm [5]

COc1c(C(=O)NCc2ccc(Cl)cc2)ccc2c1B(O)OC2 [Compound 6, N-[(4-chlorophenyl)methyl]-1-hydroxy-7-methoxy-3H-2,1-benzoxaborole-6-carboxamide]
≥ 80%: inhibition of growth at 20 ppm [1] | pest or weed control at 200 ppm [6] | inhibition of growth at 20 ppm (Gaeumannomyces graminis) | inhibition of growth at 20 ppm (Pythium ultimum)

COC(=O)c1ccc2c(c1OC(F)F)B(O)OC2 [Compound 16, methyl 7-(difluoromethoxy)-1-hydroxy-3H-2,1-benzoxaborole-6-carboxylate]
≥ 80%: inhibition of growth at 20 ppm [2] | inhibition of growth at 20 ppm (Sclerotinia sclerotiorum) | inhibition of growth at 20 ppm (Gaeumannomyces graminis) | inhibition of growth at 20 ppm (Pythium ultimum)

CCC1=NC(C)(COC(=O)c2ccc3c(c2OC)B(O)OC3)CO1 (stereo not shown) [Compound 99, (2-ethyl-4-methyl-5H-oxazol-4-yl)methyl 1-hydroxy-7-methoxy-3H-2,1-benzoxaborole-6-carboxylate]
≥ 80%: inhibition of growth at 20 ppm [1] | inhibition of growth at 20 ppm [2] | inhibition of growth at 20 ppm [3] | inhibition of growth at 20 ppm (Sclerotinia sclerotiorum) | inhibition of growth at 20 ppm (Gaeumannomyces graminis) | inhibition of growth at 20 ppm (Pythium ultimum) | inhibition of growth at 20 ppm [4] | inhibition of growth at 20 ppm [5]

COc1c(C(=O)OCC#Cc2ccccc2)ccc2c1B(O)OC2 [Compound 132, 3-phenylprop-2-ynyl 1-hydroxy-7-methoxy-3H-2,1-benzoxaborole-6-carboxylate]
≥ 80%: inhibition of growth at 20 ppm [1] | pest or weed control at 200 ppm [6] | inhibition of growth at 20 ppm [3] | inhibition of growth at 20 ppm (Gaeumannomyces graminis) | inhibition of growth at 20 ppm (Pythium ultimum) | inhibition of growth at 20 ppm [4]

COc1c(C(=O)NC(C)C)ccc2c1B(O)OC2 [Compound 34, 1-hydroxy-N-isopropyl-7-methoxy-3H-2,1-benzoxaborole-6-carboxamide]
≥ 80%: pest or weed control at 200 ppm [6] | inhibition of growth at 20 ppm (Pythium ultimum)

COC(=O)C#CCOC(=O)c1ccc2c(c1OC)B(O)OC2 [Compound 79, (4-methoxy-4-oxo-but-2-ynyl) 1-hydroxy-7-methoxy-3H-2,1-benzoxaborole-6-carboxylate]
≥ 80%: inhibition of growth at 20 ppm [1] | inhibition of growth at 20 ppm [2] | inhibition of growth at 20 ppm [3] | inhibition of growth at 20 ppm (Sclerotinia sclerotiorum) | inhibition of growth at 20 ppm (Gaeumannomyces graminis) | inhibition of growth at 20 ppm (Pythium ultimum) | inhibition of growth at 20 ppm [4] | inhibition of growth at 20 ppm [5]

COc1c(C(=O)Nc2cnoc2)ccc2c1B(O)OC2 [Compound 35, 1-hydroxy-N-isoxazol-4-yl-7-methoxy-3H-2,1-benzoxaborole-6-carboxamide]
≥ 80%: pest or weed control at 200 ppm [6] | inhibition of growth at 20 ppm (Pythium ultimum)

CNC(=O)c1ccc2c(c1OC)B(O)OC2 [Compound 8, 1-hydroxy-7-methoxy-N-methyl-3H-2,1-benzoxaborole-6-carboxamide]
≥ 80%: pest or weed control at 200 ppm [6] | inhibition of growth at 20 ppm [2] | inhibition of growth at 20 ppm (Pythium ultimum)

COc1c(C(=O)OCCc2ccccc2)ccc2c1B(O)OC2 [Compound 110, phenethyl 1-hydroxy-7-methoxy-3H-2,1-benzoxaborole-6-carboxylate]
≥ 80%: inhibition of growth at 20 ppm [1] | inhibition of growth at 20 ppm [2] | inhibition of growth at 20 ppm [3] | inhibition of growth at 20 ppm (Gaeumannomyces graminis) | inhibition of growth at 20 ppm (Pythium ultimum) | inhibition of growth at 20 ppm [4]

COc1c(C(=O)NCCc2ccccc2)ccc2c1B(O)OC2 [Compound 33, 1-hydroxy-7-methoxy-N-phenethyl-3H-2,1-benzoxaborole-6-carboxamide]
≥ 80%: inhibition of growth at 20 ppm [1] | pest or weed control at 200 ppm [6]

COc1c(C(=O)Nc2nnc(C(F)(F)F)s2)ccc2c1B(O)OC2 [Compound 64, 1-hydroxy-7-methoxy-N-[5-(trifluoromethyl)-1,3,4-thiadiazol-2-yl]-3H-2,1-benzoxaborole-6-carboxamide]
≥ 80%: inhibition of growth at 20 ppm [1] | inhibition of growth at 20 ppm (Sclerotinia sclerotiorum) | inhibition of growth at 20 ppm (Gaeumannomyces graminis) | inhibition of growth at 20 ppm (Pythium ultimum) | inhibition of growth at 20 ppm [4]

CC#CCCOC(=O)c1ccc2c(c1OC)B(O)OC2 [Compound 105, pent-3-ynyl 1-hydroxy-7-methoxy-3H-2,1-benzoxaborole-6-carboxylate]
≥ 80%: inhibition of growth at 20 ppm [1] | inhibition of growth at 20 ppm [2] | inhibition of growth at 20 ppm [3] | inhibition of growth at 20 ppm (Gaeumannomyces graminis) | inhibition of growth at 20 ppm (Pythium ultimum) | inhibition of growth at 20 ppm [4]

COc1c(C(=O)OCCc2scnc2C)ccc2c1B(O)OC2 [Compound 84, 2-(4-methylthiazol-5-yl)ethyl 1-hydroxy-7-methoxy-3H-2,1-benzoxaborole-6-carboxylate]
≥ 80%: inhibition of growth at 20 ppm [1] | inhibition of growth at 20 ppm [2] | inhibition of growth at 20 ppm (Gaeumannomyces graminis) | inhibition of growth at 20 ppm (Pythium ultimum) | inhibition of growth at 20 ppm [4]

CCN(CC)C(=O)COC(=O)c1ccc2c(c1OC)B(O)OC2 [Compound 94, [2-(diethylamino)-2-oxo-ethyl] 1-hydroxy-7-methoxy-3H-2,1-benzoxaborole-6-carboxylate]
≥ 80%: inhibition of growth at 20 ppm [1] | inhibition of growth at 20 ppm [2] | inhibition of growth at 20 ppm [3] | inhibition of growth at 20 ppm (Sclerotinia sclerotiorum) | inhibition of growth at 20 ppm (Gaeumannomyces graminis) | inhibition of growth at 20 ppm (Pythium ultimum) | inhibition of growth at 20 ppm [4] | inhibition of growth at 20 ppm [5]

COc1c(C(=O)NCc2ccccc2F)ccc2c1B(O)OC2 [Compound 5, N-[(2-fluorophenyl)methyl]-1-hydroxy-7-methoxy-3H-2,1-benzoxaborole-6-carboxamide]
≥ 80%: pest or weed control at 200 ppm [6] | inhibition of growth at 20 ppm (Pythium ultimum)
